Reference: the supplement of paper PMC8671470

Columns and labels:
Details in all cases: 72 h
BV-173 [1] = system: BV-173
Outline: (§1)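 Seeded in RPMI 1640 at densities within the linear growth range, fifteen myeloid leukaemia cell lines were dispensed into 384-well plates with acoustically pre-printed compounds spanning five tenfold doses from 1 to 10,000 nM, in duplicate. The plates were kept for 72 h at 37 °C in 5% CO2 before luminescent ATP viability was measured and normalised to vehicle and to a positive control at 10 µM. Curves were fitted with a four-parameter log-logistic model. The IC50 was taken from those curves.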

HEL [2] = system: HEL
Outline: as §1

HL-60 [3] = system: HL-60
Outline: as §1

K-562 [4] = system: K-562
Outline: as §1

KCL-22 [5] = system: KCL-22
Outline: as §1

KG-1 = system: KG-1
Outline: as §1

KU-812 [6] = system: KU-812
Outline: as §1

LAMA-84 [7] = system: LAMA-84
Outline: as §1

ML-2 [8] = system: ML-2
Outline: as §1

MOLM-13 = system: MOLM-13
Outline: as §1

MV4-11 = system: MV4-11
Outline: as §1

Mono-Mac-6 [9] = system: Mono-Mac-6
Outline: as §1

NOMO-1 [10] = system: NOMO-1
Outline: as §1

SHI-1 [11] = system: SHI-1
Outline: as §1

THP-1 = system: THP-1
Outline: as §1

HL-60 [12] = experiment: cell viability (% survival relative to DMSO control); higher = less cytotoxic
Outline: (§2)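 HL-60 cells grown in RPMI 1640 with 10% FBS were rescreened against the full library in 384-well plates, in duplicate, at five tenfold concentrations from 1 to 10,000 nM, alongside DMSO or 100 nM of one of three metabolic inhibitors for 72 h at 37 °C, 5% CO2. Reference wells contained DMSO or 10 μM proteasome inhibitor. Viability was read with CellTiter-Glo and normalised to these reference wells, and where reported, area under the curve was taken from four-parameter log-logistic fits in drc and PharmacoGx.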

BV-173 [13] = experiment: cell viability (% survival relative to DMSO control, bortezomib = 0%); higher = less cytotoxic
Outline: (§3)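 Fifteen myeloid leukaemia cell lines were exposed to compounds at 1, 10, 100, 1000 or 10000 nM in 384-well plates for 72 h at 37 °C and 5% CO2. Viability was read by CellTiter-Glo luminescence and normalised, with vehicle as 100% and a 10 µM positive control as 0%. Values are percent survival averaged over duplicates.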

HEL [14] = experiment: as above
Outline: as §3

HL-60 [15] = experiment: as above
Outline: as §3

K-562 [16] = experiment: as above
Outline: as §3

KCL-22 [17] = experiment: as above
Outline: as §3

KU-812 [18] = experiment: as above
Outline: as §3

LAMA-84 [19] = experiment: as above
Outline: as §3

ML-2 [20] = experiment: as above
Outline: as §3

Mono-Mac-6 [21] = experiment: as above
Outline: as §3

NOMO-1 [22] = experiment: as above
Outline: as §3

SHI-1 [23] = experiment: as above
Outline: as §3

HL-60 [24] = experiment: area under dose-response curve (viability, 1 nM-10 uM) (fraction (0-1)); higher = more sensitive
Outline: as §2

Cc1cn([C@H]2C[C@H](O)[C@@H](COP(=O)(O)OP(=O)(O)O)O2)c(=O)[nH]c1=O [Thymidine diphosphate]
Details | IC50 (cell viability) [µM]
BV-173 [1] | 4.03
HEL [2] | > 10
HL-60 [3] | > 10
K-562 [4] | > 10
KCL-22 [5] | > 10
KG-1 | > 10
KU-812 [6] | > 10
LAMA-84 [7] | > 10
ML-2 [8] | > 10
MOLM-13 | > 10
MV4-11 | > 10
Mono-Mac-6 [9] | > 10
NOMO-1 [10] | > 10
SHI-1 [11] | > 10
THP-1 | > 10

cell viability [%], HL-60 [12]
Details | 0.001 µM | 0.01 µM | 0.1 µM | 1 µM | 10 µM
co-treatment: AZD3965 100 nM | 97.44 | 97.9 | 101 | 102 | 98.5
co-treatment: DMSO vehicle | 101 | 100.1 | 97.7 | 101 | 95.1
co-treatment: GSK2194069 100 nM | 104.9 | 75.9 | 97.8 | 104 | 95.3
co-treatment: pictilisib 100 nM | 105 | 94 | 106 | 111 | 89.1

Details | area under dose-response curve, co-treatment: AZD3965 100 nM | area under dose-response curve, co-treatment: DMSO vehicle | area under dose-response curve, co-treatment: GSK2194069 100 nM | area under dose-response curve, co-treatment: pictilisib 100 nM | cell viability, 1 nM [%] | cell viability, 10 nM [%] | cell viability, 100 nM [%] | cell viability, 1000 nM [%] | cell viability, 10000 nM [%]
BV-173 [13] | – | – | – | – | 92.3 | 83.5 | 98.2 | 78 | 39
HEL [14] | – | – | – | – | 99.1 | 89.4 | 93.2 | 106 | 103
HL-60 [15] | – | – | – | – | 88.6 | 85.2 | 87.7 | 109 | 104
HL-60 [24] | < 0.0301 | < 0.0301 | < 0.0301 | < 0.0301 | – | – | – | – | –
K-562 [16] | – | – | – | – | 104 | 91.1 | 105 | 100 | 99.6
KCL-22 [17] | – | – | – | – | 111 | 89.8 | 98.3 | 97.7 | 85.6
KU-812 [18] | – | – | – | – | 88.2 | 93.6 | 109 | 96.9 | 102
LAMA-84 [19] | – | – | – | – | 97.1 | 97.9 | 106 | 94.5 | 86.7
ML-2 [20] | – | – | – | – | 95.6 | 87.9 | 95.5 | 96.4 | 106
Mono-Mac-6 [21] | – | – | – | – | 95.1 | 88.1 | 105 | 91.8 | 92.5
NOMO-1 [22] | – | – | – | – | 98.1 | 99.8 | 100 | 98.6 | 95.8
SHI-1 [23] | – | – | – | – | 96.2 | 89.3 | 110 | 91.8 | 107

CN(C)c1cc(NC(=O)CNC(C)(C)C)c(O)c2c1C[C@H]1C[C@H]3[C@H](N(C)C)C(=O)C(C(N)=O)C(=O)[C@@]3(O)C(=O)C1C2=O (stereo partly drawn) [Tigecycline]
Details | IC50 (cell viability) [µM]
BV-173 [1] | > 10
HEL [2] | > 10
HL-60 [3] | > 10
K-562 [4] | > 10
KCL-22 [5] | > 10
KG-1 | > 10
KU-812 [6] | > 10
LAMA-84 [7] | > 10
ML-2 [8] | > 10
MOLM-13 | > 10
MV4-11 | > 10
Mono-Mac-6 [9] | > 10
NOMO-1 [10] | > 10
SHI-1 [11] | > 10
THP-1 | > 10

cell viability [%], HL-60 [12]
Details | 0.001 µM | 0.01 µM | 0.1 µM | 1 µM | 10 µM
co-treatment: AZD3965 100 nM | 103 | 98.51 | 106 | 103 | 101
co-treatment: DMSO vehicle | 102 | 102.7 | 105 | 101.5 | 105
co-treatment: GSK2194069 100 nM | 101.8 | 96.3 | 101 | 96.7 | 103
co-treatment: pictilisib 100 nM | 97.3 | 100 | 103.3 | 101.8 | 102

Details | area under dose-response curve, co-treatment: AZD3965 100 nM | area under dose-response curve, co-treatment: DMSO vehicle | area under dose-response curve, co-treatment: GSK2194069 100 nM | area under dose-response curve, co-treatment: pictilisib 100 nM | cell viability, 1 nM [%] | cell viability, 10 nM [%] | cell viability, 100 nM [%] | cell viability, 1000 nM [%] | cell viability, 10000 nM [%]
BV-173 [13] | – | – | – | – | 119 | 107 | 97.4 | 84 | 83.4
HEL [14] | – | – | – | – | 110 | 92.4 | 101 | 99.7 | 71.6
HL-60 [15] | – | – | – | – | 153 | 81.2 | 69.6 | 110 | 75.6
HL-60 [24] | < 0.0301 | < 0.0301 | < 0.0301 | < 0.0301 | – | – | – | – | –
K-562 [16] | – | – | – | – | 102 | 93.4 | 92.1 | 90.6 | 83.4
KCL-22 [17] | – | – | – | – | 108 | 95 | 96.4 | 94.6 | 79.4
KU-812 [18] | – | – | – | – | 102 | 97 | 95.8 | 94.4 | 86.8
LAMA-84 [19] | – | – | – | – | 105 | 94.3 | 105 | 102 | 90
ML-2 [20] | – | – | – | – | 118 | 93.4 | 90.8 | 96.4 | 63
Mono-Mac-6 [21] | – | – | – | – | 112 | 108 | 100 | 105 | 93.7
NOMO-1 [22] | – | – | – | – | 106 | 97.7 | 87 | 101 | 99.3
SHI-1 [23] | – | – | – | – | 113 | 97.9 | 97.1 | 115 | 93.4
